Like-named read-outs stand apart in the source and are kept apart here.
What was measured:
[1] = system: TNFα-induced cytotoxicity in L929 fibrosarcoma cells; experiment: L929 cytoprotection assay against TNFα; format: cell-based, murine
[2] = system: phosphorylated NF-κB p65; experiment: TNF-induced NF-κB p65 phosphorylation in U937 monocytes; format: cell-based, human
[3] = Plasma pharmacokinetics after i.m. injection proximal to the sciatic nerve; format: in vivo, C57BL/6 mice
[4] = format: in vivo, C57BL/6 mice
[5] = system: L929 cells; experiment: L929 cell proliferation / cytotoxicity without TNFα; format: cell-based, murine; details: curcumin in DMSO; not shown
[6] = female, C57BL/6, mouse, plasma, im, 40 μl of 6 mM

For COc1cc(/C=C/C(=O)CC(=O)/C=C/c2ccc(O)c(OC)c2)ccc1O [curcumin], the IC50 ([1]; Mus musculus, L929, 24 h) was 13.5 µM, the “Hill slope, k” value ([1]; logistic fit, Equation 1) was 1.472 and the “attenuation of TNF-induced increases in NF-kB phosphorylation” value ([2]; high (5 μM) and low (0.5 μM) doses, 50 ng/ml TNFα 10 min) was “able to attenuate TNF-induced increases in NF-kB phosphorylation in a dose-dependent manner”. For the same compound, the “effect on basal NF-kB phosphorylation” value ([2]; high (5 μM) and low (0.5 μM) doses, no TNFα) was “no statistically significant effect”, the “attenuation of TNF-induced monocyte NF-κB activation” value ([2]; high micromolar dose (5 μM), 2 h pre-incubation, 50 ng/ml TNFα 10 min) was “equally attenuated” and the AUC [3, 6] was 0.87 ± 0.13 µM·h. For the same compound, the Tmax [3, 6] was 1 to 2 h, the “time window with plasma curcumin significantly above naïve plasma” value ([3]; mouse, i.m., one-way ANOVA p < 0.0001) was 0.5 to 4 h and the “Mass of curcumin in injection-site tissue” value (shortened to “Mass of curcumin”) ([4]; 0 h, maximum recoverable, injected after sacrifice, n = 1) was 158 nmol. The “%ID (nmol/nmol) at injection site” value ([4]; 0 h, maximum recoverable, n = 1) was 59 %ID, the “%ID (nmol/nmol) at injection site” value ([4]; 2 h, mean ± SEM) was 36 ± 8.9 %ID and the “Mass of curcumin” value ([4]; 2 h, mean ± SEM) was 98 ± 24 nmol. The “%ID (nmol/nmol) at injection site” value ([4]; 48 h, mean ± SEM) was 0.25 ± 0.002 %ID, the “Mass of curcumin” value ([4]; 48 h, mean ± SEM) was 0.67 ± 0.004 nmol and the “%ID (nmol/nmol) at injection site” value ([4]; 96 h, mean ± SEM) was 0.14 ± 0.04 %ID. The “Mass of curcumin” value ([4]; 96 h, mean ± SEM) was 0.39 ± 0.12 nmol and the “dose with some cytotoxic effects” value [5] was “above 30 μM”.
